The values below come from ChEMBL document CHEMBL1201862, “PubChem BioAssay data set” (2004).

Among the test systems are DLD-1; DMS-273; KM-20L2; M19-MEL; DMS-114; SNB-78; XF498; RXF 631; HOP-18.
Assay in all cases: NCI-60 cell line screen, 48 h

Where “and” joins values, the source holds several entries; their conditions need not be identical. Identical values can stand only once.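 Five concentrations, 48 hours, 96-well plates. GI50 is the concentration that inhibits growth by half.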 Calls of active or inactive are those of the source. No stated cut-off is given here; in the data, active = GI50 up to about 1.1 µM and inactive = higher. A value given as a limit tells only on which side of the number the result lay.

For the molecule `Brc1ccc(C[N+]23CN4CN(CN(C4)C2)C3)cc1`, the GI50 is > 10 µM (inactive) in the test on DLD-1; 22.5 µM (inactive) in the test on DMS-273; 31.1 µM (inactive) in the test on KM-20L2; 41.8 µM (inactive) in the test with M19-MEL; 23.6 µM (inactive) in the test on DMS-114; 83.2 µM (inactive) in the test with SNB-78.
On to `O=C(c1ccc(NCN2C(=O)CCC2=O)cc1)c1ccc(NCN2C(=O)CCC2=O)cc1`, for which the GI50 was > 100 µM (inactive) with DLD-1; 49.8 µM (inactive) in the test on DMS-273; > 100 µM (inactive) in the test on KM-20L2; > 100 µM (inactive) with M19-MEL; > 100 µM (inactive) in the test with SNB-78; > 100 µM (inactive) with XF498. Further, the GI50 in the test on RXF 631 was > 100 µM (inactive).
On to `O=C1OC(CC(=O)c2ccc(Cl)cc2)C(Cl)=C1Cl` (configuration not stated), for which the GI50 was 52.6 µM (inactive) with DLD-1; > 100 µM (inactive) with DMS-273; > 100 µM (inactive) in the test on KM-20L2; > 100 µM (inactive) in the test with M19-MEL; > 100 µM (inactive) in the test with DMS-114; > 100 µM (inactive) in the test with HOP-18. In addition, in the test with XF498, the GI50 was > 100 µM (inactive).
Turning to `CN(C)[C@@H]1C(O)=C(C(N)=O)C(=O)[C@@]2(O)C(O)=C3C(=O)c4c(O)cccc4C[C@H]3C[C@@H]12`, the GI50 with DLD-1 was 2.66 µM (inactive); in the test on DMS-273 it was 2.17 µM (inactive); in the test with KM-20L2 it was 2.19 µM (inactive); in the test with M19-MEL, 1.68 µM (inactive); in the test with DMS-114, 2.52 µM (inactive); in the test with HOP-18 it was 1.79 µM (inactive).
Consider `O=C(Cc1ccccc1)NN1C(=O)C(Cl)C1c1ccc([N+](=O)[O-])cc1` (configuration not stated), for which the GI50 in the test with DLD-1 was > 100 µM (inactive); in the test with DMS-273 it was > 100 µM (inactive); in the test with KM-20L2, > 100 µM (inactive); in the test on M19-MEL it was > 100 µM (inactive); with DMS-114 it was 28.6 µM (inactive); in the test with SNB-78, 45.9 µM (inactive). Moreover, the GI50 in the test with HOP-18 and with XF498 was > 100 µM (inactive) throughout.
As to `COc1nc(=O)n(COC(CO)CN2C(=O)c3ccccc3C2=O)cc1Cc1cccc(OCc2ccccc2)c1` (configuration not stated), the GI50 is 28.3 µM (inactive) with DLD-1; 19.4 µM (inactive) in the test on DMS-273; 26.2 µM (inactive) in the test with KM-20L2; 20.7 µM (inactive) in the test on M19-MEL; 22 µM (inactive) with DMS-114; 31.6 µM (inactive) in the test on SNB-78. For the same molecule, in the test on HOP-18, the GI50 is 27.5 µM (inactive).
Turning to `Cn1cnc([N+](=O)[O-])c1Sc1nnc(-c2cccnc2)n1C`, the GI50 is 18.8 µM (inactive) with DLD-1; 80.2 µM (inactive) in the test on DMS-273; 33.9 µM (inactive) in the test with KM-20L2; 19.1 µM (inactive) with M19-MEL; 18.9 µM (inactive) in the test on DMS-114; 21.4 µM (inactive) in the test with SNB-78. For the same molecule, the GI50 is 14.6 µM (inactive) with HOP-18 and 20.4 µM (inactive) in the test with XF498.
Consider `Cc1nc2ccncc2[nH]1`, for which the GI50 is > 100 µM (inactive) with DLD-1; > 100 µM (inactive) in the test with DMS-273; > 100 µM (inactive) in the test with KM-20L2; > 100 µM (inactive) in the test on M19-MEL; > 100 µM (inactive) in the test with DMS-114; 58.6 µM (inactive) in the test with XF498. The GI50 in the test on RXF 631 was > 100 µM (inactive).
Regarding `COc1ccc(C2=NN(c3ccccc3)C[N+](c3ccc(OC)cc3)=N2)cc1`, the GI50 is 28.8 µM (inactive) in the test with DLD-1; 24.5 µM (inactive) in the test on DMS-273; 29.6 µM (inactive) in the test with KM-20L2; 30.5 µM (inactive) with M19-MEL; 24.2 µM (inactive) in the test with DMS-114; 28.2 µM (inactive) in the test on SNB-78. Moreover, the GI50 in the test on XF498 was 18.8 µM (inactive).
`N#Cc1cccc(N2C(=O)c3ccc(C(=O)c4ccc5c(c4)C(=O)N(c4cccc(C#N)c4)C5=O)cc3C2=O)c1`: the GI50 in the test with DLD-1, with DMS-273, in the test with KM-20L2, in the test on M19-MEL, with DMS-114 and in the test on SNB-78 was > 100 µM (inactive) each time. Also, the GI50 in the test with HOP-18 and in the test on XF498 was > 100 µM (inactive) each time.
As to `O=C1CC(O)(c2ccccc2)C(c2ccccc2)=C1c1ccccc1` (configuration not stated), the GI50 is 44.2 µM (inactive) in the test with DLD-1; 34.6 µM (inactive) in the test on DMS-273; 41.8 µM (inactive) in the test with KM-20L2; 29.6 µM (inactive) with M19-MEL; 26.2 µM (inactive) in the test on DMS-114; 73.6 µM (inactive) with SNB-78. Moreover, the GI50 in the test with XF498 is 24.4 µM (inactive).
For `CCOC(=O)Cn1c(=O)n(C)c(=O)c2[nH]cnc21`, the GI50 with DLD-1, in the test with DMS-273, with M19-MEL, in the test on DMS-114, with SNB-78 and with XF498 was > 100 µM (inactive) throughout.
Consider `CCN(CC)c1ccc2cc3ccc(N(CC)CC)cc3[o+]c2c1`, for which the GI50 with DLD-1 was 1.39 µM (inactive); in the test on DMS-273 it was 1.12 µM (active); in the test on KM-20L2, 1.82 µM (inactive); with DMS-114, 0.687 µM (active); in the test on SNB-78 it was 2.43 µM (inactive); in the test with XF498 it was 1.23 µM (inactive).
With `O=c1c(Cl)c(Cl)cnn1-c1ccccc1`, the GI50 in the test on DLD-1 was 1.44 µM (inactive) and 2.35 µM (inactive); with M19-MEL, 3.05 µM (inactive) and 3.13 µM (inactive); in the test on DMS-114, 2.33 µM (inactive) and 1.56 µM (inactive); in the test with SNB-78 it was 7.33 µM (inactive); in the test with HOP-18, 8.53 µM (inactive) and 5.19 µM (inactive); in the test on XF498, 2.46 µM (inactive).
In the case of `C=C1C(=O)c2cc3c(cc2C(c2cc(OC)c(OC)c(OC)c2)[C@@H]1C(=O)O)OCO3` (some centres not stated), the GI50 with DLD-1 was 55.3 µM (inactive); in the test with DMS-273 it was > 10 µM (inactive); in the test with M19-MEL, 49.1 µM (inactive); in the test with DMS-114, 36.7 µM (inactive); with SNB-78 it was 49.1 µM (inactive); in the test on HOP-18 it was > 100 µM (inactive).
For `COc1ccccc1/C=C1\C(=O)N(C(=O)Cc2ccccc2)N=C1C`, the GI50 in the test with DLD-1 is > 100 µM (inactive); with DMS-273 it was > 100 µM (inactive); in the test on M19-MEL, > 100 µM (inactive); in the test with DMS-114, > 100 µM (inactive); with SNB-78, > 100 µM (inactive); with HOP-18, 13.1 µM (inactive). Further, in the test with XF498, the GI50 was > 100 µM (inactive).
Turning to `C/C=C(\NC(=O)C(CCCCN)NC(=O)C(C)NC(=O)C1CSC(C)C(NC(=O)C2CSCC(NC(=O)C(C)NC(=O)C(N)C(C)CC)C(=O)NC(CCCCN)C(=O)NC(Cc3ccccc3)C(=O)NC(CC(C)C)C(=O)N2)C(=O)N2CCCC2C(=O)NCC(=O)N1)C(=O)NCC(=O)NC1CSCC2NC(=O)C(Cc3ccc(O)cc3)NC(=O)C(CSC=CNC2=O)NC(=O)C(CC(N)=O)NC(=O)C(Cc2ccccc2)NC1=O` (configuration not stated), the GI50 with DLD-1 is > 100 µM (inactive); in the test on DMS-273, 57.1 µM (inactive); with M19-MEL, 67.8 µM (inactive); with DMS-114, > 100 µM (inactive); in the test with SNB-78, > 100 µM (inactive); in the test on XF498, > 100 µM (inactive).
Consider `COc1ccc(/C(=N/NC(N)=O)C2(O)C(=O)Nc3ccc([N+](=O)[O-])cc32)cc1` (configuration not stated), for which the GI50 is 21.3 µM (inactive) with DLD-1; 18.3 µM (inactive) in the test with DMS-273; 22.3 µM (inactive) in the test on KM-20L2; 20.7 µM (inactive) in the test on M19-MEL; 19.7 µM (inactive) in the test with DMS-114; 17.8 µM (inactive) in the test on SNB-78. In the test with XF498, the GI50 was 16.5 µM (inactive).
